The record followed here is patent US20090318402A1, “RUTHENIUM (II) COMPOUNDS” (The University Court of the University of Edinburg, priority 2006, published 2009).

The IC50 is the point on the concentration scale where inhibition reaches its midpoint. A high value points to weaker potency in that assay.

The subject of data set [1] is A549 cancer cell line. Briefly: Cell viability after increasing thiol levels (NAC pre-incubation). It counts as cell-based. The conditions noted are these: 24 hours incubation, 96 hour recovery, 5 mM NAC for two hours, FIG. 5. As to the method:
Cell viability was determined in the A549 cancer cell line after cells were pre-incubated with 5 mM NAC to increase intracellular thiol levels. […] This implies that ROS are involved in cell death.

The next data set has as its system A2780 cancer cell line. Kind of data set: Cytotoxicity: inhibitory growth activity, sulforhodamine B assay. It counts as cell-based. As to conditions: 24 hours drug exposure, 96 hours recovery, SRB. The method, then:
(§1) Compounds were tested for inhibitory growth activity against the A2780 and A549 cancer cell lines. Each drug was tested for activity at six different concentrations (100 μM, 50 μM, 10 μM, 5 μM, 1 μM and 0.1 μM) and each concentration was tested in triplicate, relative to a cisplatin control.
The A2780 cancer cell line was maintained by growing the cells in RPMI media supplemented with 5% fetal bovine serum, 1% penicillin/streptomycin and 2 mM L-glutamine. The cells were split when approximately 70-80% confluence were reached using 0.25% trypsin/EDTA. The cells were kept incubated at 37° C., 5% CO2, high humidity. The A549 cancer cell line was maintained by growing the cells in DMEM media supplemented with 10% fetal bovine serum, 1% penicillin/streptomycin and 2 mM L-glutamine. The cells were split when approximately 70-80% confluence were reached using 0.25% trypsin/EDTA. The cells were kept incubated at 37° C., 5% CO2, high humidity.
A2780 cancer cells were plated out at 50000 cells/well (±10%) on day one. A549 cancer cells were plated out at 20000 cells/well (±10%) on day two. On day three the test compound was dissolved in DMSO to give a stock solution of 20 mM and serial dilutions were carried out in DMSO to give concentrations of drug in DMSO of 10 mM, 2 mM, 1 mM, 0.2 mM and 0.02 mM. These were added to the wells to give the six testing concentrations and a final concentration of DMSO as 0.5% (v/v) with a total volume of drugs and media to be 200 μl. The cells were exposed to the drug for 24 hours then, after drug removal, fresh media was given and the cells were incubated for 96 hours recovery time. The remaining biomass was estimated by the sulforhodamine B assay. The cells were then fixed using 50 μl 50% (w/v) TCA and incubated at 4° C. for one hour. The biomass was stained with 100 μl 0.4% (w/v) sulforhodamine B in 1% acetic acid. The dye was solubilised with Tris Buffer and the absorbance was read using a BMG Fluostar microplate reader at 595 nm. A baseline correction at 690 nm was subtracted from the values. The absorbance for 100% cell survival was based on the average absorbance for the 0.1 μM dosed triplicate for that drug. IC50 values were calculated using XL-Fit version 4.0.
(In general: In SRB staining, fixed cells bind dye roughly in proportion to their protein.)

Data set [2] deals with A549 cancer cell line. Described as above. It is filed as cell-based. As to conditions: 24 hours drug exposure, 96 hours recovery, SRB. As to the method:
as §1
The A2780 cancer cell line was maintained by growing the cells in RPMI media supplemented with 5% fetal bovine serum, 1% penicillin/streptomycin and 2 mM L-glutamine. […] The cells were kept incubated at 37° C., 5% CO2, high humidity. The A549 cancer cell line was maintained by growing the cells in DMEM media supplemented with 10% fetal bovine serum, 1% penicillin/streptomycin and 2 mM L-glutamine. […] The cells were kept incubated at 37° C., 5% CO2, high humidity.
A2780 cancer cells were plated out at 50000 cells/well (±10%) on day one. A549 cancer cells were plated out at 20000 cells/well (±10%) on day two. […] The remaining biomass was estimated by the sulforhodamine B assay. The cells were then fixed using 50 μl 50% (w/v) TCA and incubated at 4° C. for one hour. The biomass was stained with 100 μl 0.4% (w/v) sulforhodamine B in 1% acetic acid. The dye was solubilised with Tris Buffer and the absorbance was read using a BMG Fluostar microplate reader at 595 nm. A baseline correction at 690 nm was subtracted from the values. The absorbance for 100% cell survival was based on the average absorbance for the 0.1 μM dosed triplicate for that drug. IC50 values were calculated using XL-Fit version 4.0.

A short description of data set [3]: Aqueous solution chemistry followed by 1H NMR (hydrolysis, arene loss). It is filed as physicochemical. As to conditions: 100 μM. The method, then: NMR-Spectroscopy: All ^1H NMR experiments for characterization of synthesized compounds were recorded on either a Bruker DMX 500 MHz spectrometer equipped with TBI [^1H, ^13C, ^15N] probe-head, equipped with z-field gradients or a Bruker DPX 360 MHz spectrometer. The proton signals were calibrated against the residual solvent peak, δ 7.27 (chloroform), 2.07 (acetone) and 2.52 (DMSO). The 2D ^1H-TOCSY and 2D ^1H COSY experiments for characterization were run on a Bruker DMX 500 MHz spectrometer. 2D-^1H ROESY experiment for characterization was recorded on a Bruker AVA […] spectrometer equipped with a with a TXI [^1H, ^13C, ^15N] probe-head, equipped with z-field gradients. All pH titration experiments were recorded on a Bruker AVA 600 MHz spectrometer where dioxan was added as an internal reference (δ 3.75, in 100% D2O). The water was suppressed using a 1D Double Pulse Field Gradient Spin Echo (DPFGSE) experiment. The aqueous solution behaviour was recorded on a Bruker bio 600 MHz spectrometer equipped with a cryoprobe and the water was suppressed using a 1D Double Pulse Field Gradient Spin Echo (DPFGSE) experiment. The chemical shifts were measured relative to dioxin (internal reference δ 3.75, in 90% H2O/10% D2O). All spectra were recorded using 5 mm quartz tubes at 298 K unless stated otherwise. All NMR data were processed using Xwin-NMR (Version 2.0 Bruker UK Ltd).
The complex was dissolved in H2O/D2O, the pH was taken, and NMR spectra were recorded at uniform time intervals at a fixed temperature using a multi-zg kinetic experiment program. After acquisition, Electrospray Mass Spectrometry was performed on a portion of the NMR solution.
The solution chemistry was followed by ^1H NMR unless stated otherwise.

A further data set has as its system A549 cancer cells. Briefly: Detection of reactive oxygen species (ROS) with DCFH-DA probe. It counts as cell-based. The conditions noted are these: 25 μM, 0.5% DMSO, 6.5 hours, 310 K, cells pre-loaded with DCFH-DA; FIG. 4. The method, then: The generation of ROS can be detected inside living cells using the molecular probe DCFH-DA. This probe crosses the membrane into cells where it is hydrolyzed to DCFH. In the presence of ROS it is oxidized to highly fluorescent DCF. […] Cells were loaded with DCFH-DA (10 μM, 0.5% DMSO (v/v)) and were incubated at 310 K, 5% CO2, high humidity for 30 minutes. The probe was removed and the cells were washed twice with PBS (200 μL). The cells were then kept in Hanks Balanced Salt Solution (HBSS) and the ruthenium compounds were diluted with HBSS and added to the wells (25 μM, 0.5% DMSO (v/v)). Hydrogen peroxide (25 μM) was added as a positive control and the fluorescence was read every 200 seconds over a period of 6.5 hours at 310 K by excitation at 480±10 nm and emission at 538±15 nm on a BMG fluostar plate reader. A time course experiment was performed to follow any increase in fluorescence over 6.5 hours after addition of ruthenium compounds to cells pre-loaded with DFCH-DA.

For data set [4] the following is noted: 50 μM, 95% H2O, 5% MeOH, pH 2.27.
[5] abbreviates: 90% H2O/10% D2O, pH=ca 5, 25° C., initially (time=40 mins).

`[NH2][Pt]([NH2])([Cl])[Cl]` [CDDP, cisplatin, reference compound]: the “cell survival of cells pre-treated with NAC versus untreated cells” value in the data set on A549 cancer cell line [1] (5 μM drug) is reported as “greater cell survival”.
Consider `CN(C)c1ccc(N=Nc2cc[nH]n2)cc1.F[P-](F)(F)(F)(F)F.[Cl-].[Ru+2].c1ccc(-c2ccccc2)cc1` [Compound 15, [Ru(biphenyl)(3(5)-(4-dimethylaminophenylazo)pyrazole)Cl]PF6], for which the IC50 amounted to 24 µM in the data set on A2780 cancer cell line and 32 µM in the data set on A549 cancer cell line [2]. For the same molecule, the “arene loss (free biphenyl peaks)” value in data set [3] (99.5% D2O, 0.5% DMSO, 115 mM NaCl, pH=7.35, 37° C., over 24 hours) is “major peaks corresponding to free biphenyl”.
As for `CN(C)c1ccc(N=Nc2cc[nH]n2)cc1.F[P-](F)(F)(F)(F)F.[I-].[Ru+2].c1ccc(-c2ccccc2)cc1` [Compound 16, [Ru(biphenyl)(3(5)-(4-dimethylaminophenylazo)pyrazole)I]PF6], the IC50 turned out to be 31 µM in the data set with A2780 cancer cell line and 42 µM in the data set on A549 cancer cell line [2].
The matching figures for “[(η^6-C6H5OCH2CH2OH)Ru(azpy-NMe2)I]I [Compound 22]”: 15 µM and 49 µM.
“[Ru(THN)(3(5)-(4-dimethylaminophenylazo)pyrazole)Cl]PF6 [Compound 18]” returned an IC50 in the data set on A2780 cancer cell line of 57 µM.
Take “[Ru(THN)(4-phenol-azo pyridine)Cl]PF6 [Compound 19]”: the IC50 with A2780 cancer cell line was determined as 38 µM; with A549 cancer cell line [2], 81 µM.
As to “[Ru(benzene)(3(5)-(4-dimethylaminophenylazo)pyrazole)Cl]PF6 [Compound 17]”, the IC50 in the data set on A2780 cancer cell line is 88 µM.
Turning to “[Ru(bip)(2-phenyl-azo pyridine)I]PF6 [Compound 7]”, the values for the IC50 in the data set with A2780 cancer cell line and in the data set on A549 cancer cell line [2] were 51 µM and 39 µM, respectively.
“[Ru(biphenyl)(4-phenol-azo pyridine)Cl]PF6 [Compound 12]”: the figures for the IC50 with A2780 cancer cell line and in the data set with A549 cancer cell line [2] were 18 µM and 56 µM, respectively.
On to “[Ru(biphenyl)(4-phenol-azo pyridine)I]PF6 [Compound 13]”, for which the IC50 in the data set with A2780 cancer cell line worked out at 5 µM; in the data set with A549 cancer cell line [2], 6 µM. Besides, in the data set with A549 cancer cells, the “change in DCF fluorescence over time (ROS generation)” value (“change in DCF fluorescence over time” below) was “increase in the DCF fluorescence”. Besides, the “cell survival of cells pre-treated with NAC versus untreated cells” value with A549 cancer cell line [1] (5 μM drug) is reported as “greater cell survival”.
Turning to “[Ru(biphenyl)(Azpy-NMe2)Cl]PF6 [Compound 9]”, the values for the IC50 in the data set on A2780 cancer cell line and in the data set with A549 cancer cell line [2] were 40 µM and 53 µM, respectively.
Consider “[Ru(biphenyl)(Azpy-NMe2)I]PF6 [Compound 10]”, for which the half-inhibitory concentration (IC50) worked out at 3 µM in the data set on A2780 cancer cell line and 2 µM in the data set with A549 cancer cell line [2]. Besides, the “change in DCF fluorescence over time” value in the data set with A549 cancer cells is recorded as “increase in the DCF fluorescence”. Also, the “cell survival of cells pre-treated with NAC versus untreated cells” value with A549 cancer cell line [1] (1 μM drug) was “greater cell survival”.
Turning to “[Ru(p-cymene)(3(5)-(4-dimethylaminophenylazo)pyrazole)Cl]PF6 [Compound 14]”, the IC50 in the data set with A2780 cancer cell line stood at 18 µM. This molecule also returned an IC50 in the data set on A549 cancer cell line [2] of 41 µM. For the same molecule, the “speciation after 24 hours” value in data set [3] (90% H2O/10% D2O, pH=ca 5, 25° C., after 24 hours) was “exists fully in the aqua form”. In data set [3] (setting [5]), the aqua species is ~40% and the chloride species is given as ~60%. The “course of the hydrolysis reaction” value in data set [3] (90% H2O/10% D2O, pH=ca 5, 37° C. over 24 hours, compared with 25° C.) is “the course of the reaction is the same”. Further, the “half live for hydrolysis” value in data set [4] stood at 2.09 h.
The molecule “[Ru(p-cymene)(4-phenol-azo pyridine)Cl]PF6 [Compound 11]” came in with an IC50 in the data set with A2780 cancer cell line of 54 µM.
As for “[Ru(p-cymene)(4-phenol-azo pyridine)I]PF6 [Compound 21]”, the IC50 in the data set on A2780 cancer cell line and in the data set on A549 cancer cell line [2] was 4 µM in each case. In addition, the “change in DCF fluorescence over time” value in the data set on A549 cancer cells was “increase in the DCF fluorescence”. Moreover, the “cell survival of cells pre-treated with NAC versus untreated cells” value with A549 cancer cell line [1] (5 μM drug) is listed as “greater cell survival”.
As for “[Ru(p-cymene)(Azpy-NMe2NO2)I]PF6 [Compound 20]”, the IC50 in the data set on A2780 cancer cell line was determined as 40 µM; in the data set with A549 cancer cell line [2] it was 28 µM.
